Paper PMC4840931 (Clinical cancer research : an official journal of the …, 2015)
Read-outs that look alike come from different tables or passages of the source. Marks after values point to notes of the source that are not given here.

What was measured:
[1] = tested on: patients with advanced solid tumors; assay type: in vivo
[2] = tested on: patients with advanced solid tumors; assay: Tumor response by RECIST version 1.0; assay type: in vivo, human
[3] = Plasma pharmacokinetics; conditions: human, in vivo
[4] = Urinary excretion of unchanged lenvatinib; assay type: in vivo, human; conditions: for fe (fraction of the dose excreted in urine): mean (SD)
[5] = tested on: human umbilical vein endothelial cell; conditions: cited from earlier work
[6] = tested on: human umbilical vein endothelial cell; conditions: cited from earlier work; remark: listed apart in the source
[7] = tested on: human lung (H146) mouse xenograft; conditions: cited from earlier work
[8] = tested on: breast cancer (MDA-MB-231) mouse xenograft; conditions: cited from earlier work
[9] = cited from earlier work

## COc1cc2nccc(Oc3ccc(NC(=O)NC4CC4)c(Cl)c3)c2cc1C(N)=O [lenvatinib]
[1]; Entire Study Population (N=77)
  Study drug–related TEAE, Hypertension, CTCAE grade 3: 13 (16.9) n (%)
  Study drug–related TEAE, Hypertension, CTCAE grade 3+4: 13 (16.9) n (%)
[1]; Melanoma Expansion Cohort 10.0 mg bid (n=26)
  Study drug–related TEAE, Diarrhea, Total: 8 (30.8) n (%)
[1]; expanded melanoma cohort (n=26)
  Died during therapy or within 30 days of the last treatment: 30.8%
[1]; human, in vivo
  Grade 3 study drug–related toxicity: body weight reduction: 8%
  Grade 3 study drug–related toxicity: diarrhea: 5%
  Grade 3 study drug–related toxicity: fatigue: 7%
  Grade 3 study drug–related toxicity: hypertension: 17%
  Grade 3 study drug–related toxicity: proteinuria: 5%
  Grade 4 proteinuria, treatment-related: 1 event
  Grade 4 reversible posterior leukoencephalopathy syndrome, treatment-related: 1 event
  Grade 4 thrombocytopenia, treatment-related: 1 event
  Grade 4 thrombotic thrombocytopenic purpura, treatment-related: 1 event
  Study drug–related TEAE, Anorexia, CTCAE grade 1: 8 (10.4) n (%)
  Study drug–related TEAE, Anorexia, CTCAE grade 2: 11 (14.3) n (%)
  Study drug–related TEAE, Anorexia, CTCAE grade 3: 0 n (%)
  Study drug–related TEAE, Anorexia, CTCAE grade 3+4: 0 n (%)
  Study drug–related TEAE, Anorexia, CTCAE grade 4: 0 n (%)
  Study drug–related TEAE, Anorexia, Total: 19 (24.7) n (%)
  Study drug–related TEAE, Any AE, CTCAE grade 1: 6 (7.8) n (%)
  Study drug–related TEAE, Any AE, CTCAE grade 2: 30 (39.0) n (%)
  Study drug–related TEAE, Any AE, CTCAE grade 3: 28 (36.4) n (%)
  Study drug–related TEAE, Any AE, CTCAE grade 3+4: 32 (41.6) n (%)
  Study drug–related TEAE, Any AE, CTCAE grade 4: 4 (5.2) n (%)
  Study drug–related TEAE, Any AE, Total: 68 (88.3) n (%)
  Study drug–related TEAE, Diarrhea, CTCAE grade 1: 7 (9.1) n (%)
  Study drug–related TEAE, Diarrhea, CTCAE grade 2: 6 (7.8) n (%)
  Study drug–related TEAE, Diarrhea, CTCAE grade 3: 4 (5.2) n (%)
  Study drug–related TEAE, Diarrhea, CTCAE grade 3+4: 4 (5.2) n (%)
  Study drug–related TEAE, Diarrhea, CTCAE grade 4: 0 n (%)
  Study drug–related TEAE, Diarrhea, Total: 17 (22.1) n (%)
  Study drug–related TEAE, Fatigue, CTCAE grade 1: 10 (13.0) n (%)
  Study drug–related TEAE, Fatigue, CTCAE grade 2: 17 (22.1) n (%)
  Study drug–related TEAE, Fatigue, CTCAE grade 3: 5 (6.5) n (%)
  Study drug–related TEAE, Fatigue, CTCAE grade 3+4: 5 (6.5) n (%)
  Study drug–related TEAE, Fatigue, CTCAE grade 4: 0 n (%)
  Study drug–related TEAE, Fatigue, Total: 32 (41.6) n (%)
  Study drug–related TEAE, Hypertension, CTCAE grade 1: 2 (2.6) n (%)
  Study drug–related TEAE, Hypertension, CTCAE grade 2: 18 (23.4) n (%)
  Study drug–related TEAE, Hypertension, CTCAE grade 4: 0 n (%)
  Study drug–related TEAE, Hypertension, Total: 33 (42.9) n (%)
  Study drug–related TEAE, Nausea, CTCAE grade 1: 9 (11.7) n (%)
  Study drug–related TEAE, Nausea, CTCAE grade 2: 8 (10.4) n (%)
  Study drug–related TEAE, Nausea, CTCAE grade 3: 2 (2.6) n (%)
  Study drug–related TEAE, Nausea, CTCAE grade 3+4: 2 (2.6) n (%)
  Study drug–related TEAE, Nausea, CTCAE grade 4: 0 n (%)
  Study drug–related TEAE, Nausea, Total: 19 (24.7) n (%)
  Study drug–related TEAE, Proteinuria, CTCAE grade 1: 7 (9.1) n (%)
  Study drug–related TEAE, Proteinuria, CTCAE grade 2: 18 (23.4) n (%)
  Study drug–related TEAE, Proteinuria, CTCAE grade 3: 4 (5.2) n (%)
  Study drug–related TEAE, Proteinuria, CTCAE grade 3+4: 5 (6.5) n (%)
  Study drug–related TEAE, Proteinuria, CTCAE grade 4: 1 (1.3) n (%)
  Study drug–related TEAE, Proteinuria, Total: 30 (39.0) n (%)
  Study drug–related TEAE, Weight decreased, CTCAE grade 1: 6 (7.8) n (%)
  Study drug–related TEAE, Weight decreased, CTCAE grade 2: 7 (9.1) n (%)
  Study drug–related TEAE, Weight decreased, CTCAE grade 3: 6 (7.8) n (%)
  Study drug–related TEAE, Weight decreased, CTCAE grade 3+4: 6 (7.8) n (%)
  Study drug–related TEAE, Weight decreased, CTCAE grade 4: 0 n (%)
  Study drug–related TEAE, Weight decreased, Total: 19 (24.7) n (%)
  Study drug–related toxicity: diarrhea: 22%
  Study drug–related toxicity: fatigue: 42%
  Study drug–related toxicity: hypertension: 43%
  Study drug–related toxicity: nausea: 25%
  Study drug–related toxicity: proteinuria: 39%
[1]; in vivo
  Dose-limiting toxicities: no DLTs
[1]; overall population n=77
  Died during therapy or within 30 days of the last treatment: 16.9%
[1]; po bid, continuous dosing, 28-day cycles
  Maximum tolerated dose (MTD): 10 mg
[2]; all 29 patients with melanoma
  Durable SD ≥23 weeks: 24.1%
  PD: 17.2%
  PR: 10.3%
  PRs/uPRs as best response: 17.2%
[2]; expanded melanoma cohort, 3 of 17 patients
  PR or uPR in patients with wild-type BRAF: 17.6%
[2]; in vivo
  Responses (PR/uPR) by disease: lung: 1/1
  Responses (PR/uPR) by disease: melanoma: 5/29
  Responses (PR/uPR) by disease: ovarian: 1/5
  Responses (PR/uPR) by disease: pancreatic: 1/2
  Responses (PR/uPR) by disease: renal: 1/1
  Responses (PR/uPR) by disease: thyroid: 3/6
[2]; overall, n=77
  PR/uPR as best response: 15.6%
  Total PR/uPR/SD≥23 weeks: 40.3%
[2]; overall, range, 4–46 cycles
  Median number of cycles after which confirmed PRs were determined: 18 cycles
[2]; schedule 1, 18 patients
  Confirmed PR: no patient
  PD: 44.4%
[2]; schedule 1, NSCLC
  uPR: One
[2]; schedule 2, 33 patients
  Confirmed PR: 21.2%
  Durable SD: 9 patients
  PD: 18.2%
[3]
  Accumulation, steady state vs single dose: 1.5-2.2 fold
  Tmax: 1.5 to 3 h
[3]; 3.2 mg
  Cmax: 51.4 (30.5) ng/mL
[3]; 3.2 mg, AUC0-6
  AUC(0-t): 180 ng·h/mL
[3]; 3.2 mg, AUC0-24
  AUC(0-t): 407 ng·h/mL
[3]; 5 mg
  AUC0-24: 649.70 (256.151) ng·hr/mL
[3]; 5 mg, AUC0-6
  AUC(0-t): 245 ng·h/mL
[3]; 5 mg, Cmax
  Cmax: 62.6 ng/mL
[3]; 8 mg
  AUC0-6: 678 (262) ng·hr/mL
  AUC0-24: 1819.57 (735.252) ng·hr/mL
  CL/F: 8.05 L/h
  Cmax: 168 (73.4) ng/mL
  Tmax: 2.5 h
  Vd/F: 86.8 L
[3]; 8 mg, AUC0-6
  AUC(0-t): 613 ng·h/mL
[3]; 8 mg, AUC0-24
  AUC(0-t): 1300 ng·h/mL
[3]; 8 mg, Cmax
  Cmax: 177 ng/mL
[3]; 10 mg
  AUC0-6: 815(320) ng·hr/mL
  AUC0-24: 1984.94 (971.427) ng·hr/mL
  Cmax: 209 (107) ng/mL
  Tmax: 2 h
  Vd/F: 75.4 L
  tmax: 3.00 (0.00−6.00) hr
[3]; 10 mg, AUC0-6
  AUC(0-t): 608 ng·h/mL
[3]; 10 mg, AUC0-24
  AUC(0-t): 1370 ng·h/mL
[3]; 10 mg, Cmax
  Cmax: 167 ng/mL
[3]; 12 mg
  Tmax: 1.5 h
[3]; 12 mg, AUC0-6
  AUC(0-t): 913 ng·h/mL
[3]; 12 mg, AUC0-24
  AUC(0-t): 1810 ng·h/mL
[3]; 12 mg, Cmax
  Cmax: 232 ng/mL
[3]; 16 mg
  CL/F: 6.09 L/h
  Vd/F: 68.5 L
[3]; 16 mg, AUC0-6
  AUC(0-t): 1510 ng·h/mL
[3]; 16 mg, Cmax
  Cmax: 341 ng/mL
[4]; Melanoma Expansion Cohort, Cycle 1 Day 1, 10 mg, n=25
  fe (fraction of the dose excreted in urine): 0.45 (0.282) %
[4]; Melanoma Expansion Cohort, Cycle 2 Day 1, 10 mg, n=16
  fe (fraction of the dose excreted in urine): 0.95 (0.987) %
[4]; Schedule 2 continuous daily dosing, Cycle 1 Day 1, 3.2 mg, n=3
  fe (fraction of the dose excreted in urine): 0.37 (0.102) %
[4]; Schedule 2 continuous daily dosing, Cycle 1 Day 1, 5 mg, n=7
  fe (fraction of the dose excreted in urine): 1.47 (0.685) %
[4]; Schedule 2 continuous daily dosing, Cycle 1 Day 1, 8 mg, n=10
  fe (fraction of the dose excreted in urine): 0.83^a (0.351) %
[4]; Schedule 2 continuous daily dosing, Cycle 1 Day 1, 12 mg, n=4
  fe (fraction of the dose excreted in urine): 0.68 (0.283) %
[4]; Schedule 2 continuous daily dosing, Cycle 2 Day 1, 8 mg, n=6
  fe (fraction of the dose excreted in urine): 1.26 (1.168) %
[4]; Schedule 2 continuous daily dosing, Cycle 2 Day 1, 16 mg, n=6
  fe (fraction of the dose excreted in urine): 1.35 (0.593) %
[4]; during the 24 hours following the dose, regardless of dose
  Fraction of the dose excreted unchanged in the urine (fe): < 1.5%
[5]
  VEGF-driven human umbilical vein endothelial cell proliferation: inhibits
[6]
  VEGF-driven human umbilical vein endothelial cell tube formation: inhibits
[7]
  Tumor growth: significantly inhibits
[8]
  Tumor growth: significantly inhibits
[9]
  Effect of co-administration of CYP3A4 inhibitors and inducers on exposure: neither affected
